Experimental data as given in EP3009422A1, “Photo-switchable sulfonylureas and their uses” (Ludwig-Maximilians-Universität München, priority 2014, dated 2016).
Entries after “also recorded” stand apart in the source; their conditions may differ.

Tests used:
islets = assay: Cytotoxicity assay (calcein-AM / propidium iodide) in islets; format: cell-based; conditions: 1 hr incubation, n = 28 islets from four animals
Description: Islets were incubated with either DMSO or JB253 for 1 hr before staining with 3 µM of calcein-AM (live) and 2.5 µM of propidium iodide (dead). Absorbance/emission was detected at 491/525 nm and 561/620 nm for calcein and PI, respectively. The area of dead:live cells was calculated as a unitary ratio and the observer blinded to treatment identity.

KATP channels = assay: Whole cell patch clamp of KATP currents in MIN6 beta cells; format: cell-based; conditions: illumination 470 ± 20 nm, JB253 concentration printed as 10 mM
Description: MIN6 cells (obtained from Dr Jun-ichi Miyazaki, Osaka University, see Miyazaki et al., 1990)) were cultured in DMEM supplemented with 15% FBS, 1% glutamine, 2% HEPES buffer, 0.0005% β-mercaptoethanol and 1% penicillin/streptomycin. Cells were seeded onto glass coverslips 24 hrs before whole cell patch clamp experiments using micropipettes generated from thin-walled borosilicate capillaries (3-6 MΩ). Bath solution contained in mM: 3 KCl, 118 NaCl, 25 HEPES, 3 MgCl2 and 2 CaCl2. Pipette solution contained in mM: 150 KCl, 3 MgCl2, 5 EGTA, 10 HEPES, 0.3 K2ATP (pH 7.2), and the holding potential was -60 mV. Illumination was provided using a X-Cite 120 mercury arc lamp (Lumen Dynamics) with a bandpass filter (470 ± 20 nm). Voltage ramps from -20 mV to -120 mV (500 ms duration) were applied every 5 s to produce current-voltage relationships in the presence and absence of JB253. All cells lines were regularly mycoplasma tested.

human islets = assay: Calcium imaging in isolated human islets of Langerhans; format: cell-based; conditions: human islets from three donors, 440 nm
Description: Human islets were isolated from deceased heart-beating donors (n = 3) at transplantation facilities in Pisa and Edmonton with the relevant national and local ethical permissions, including consent from next of kin where required, and cultured in RPMI supplemented with 5.5 mM D-glucose, 10% foetal calf serum (FCS), 100 U penicillin, 100 µg streptomycin and 0.25/µl fungizone (37 °C, 5% CO2). All studies involving human tissue were approved by the National Research Ethics Committee (NRES) London (Fulham), REC # 07/H0711/114.
Islets were loaded for 30-45 min in fluo2-AM (10 µM) or for 2-5 min with X-Rhod 1 (5 µM) diluted with a mixture of DMSO (0.01%, wt/vol) and pluronic acid (0.001%, wt/vol; all Invitrogen) in a bicarbonate buffer containing in mM: 120 NaCl, 4.8 KCl, 1.25 NaH2PO4, 24 NaHCO3, 2.5 CaCl2, 1.2 MgCl2 and 5 D-glucose. fMCI was performed using a Zeiss Axiovert M200 fitted with a Nipkow spinning-disk head (Yokogawa CSU-10) and a 10x/0.3NA objective adjusted for chromatic aberration (EC Plan-Neofluar, Zeiss). Pulsed excitation (frequency = 0.5 Hz; exposure = 263 ms) was delivered at 491 nm and emitted signals recorded at 500-550 nm with a back-illuminated 16-bit EM-CCD camera (ImageEM 9100-13; Hamamatsu). During recording, islets were maintained at 35-36 °C in the presence of 50 µM JB253 using a custom-manufactured perfusion and heating system (Digital Pixel). Drugs were introduced through the perfusion system at the indicated time points and concentrations. Violet light was delivered by a 405 ± 5 nm laser coupled to the side port of the microscope and configured to fill the back of the objective with light using an Optospot (Cairn Research). Blue light was delivered using 440 ± 5 nm and 491 ± 5 nm diode lasers controlled by a laser merge module (Spectral Applied Research) to allow simultaneous exposure and acquisition. […] Signals were normalized using F/Fmin where F is fluorescence at a given timepoint and Fmin is minimum fluorescence.

SUR1 = biological target: T1, SUR1 (Rattus norvegicus, UniProt Q09429); assay: [3H]-glibenclamide displacement radioassay in SUR1-expressing HEK293t cells; format: binding
T1 construct: expressed in transfected cells; host or cells: HEK293t
T1 sequence (Q09429 whole entry): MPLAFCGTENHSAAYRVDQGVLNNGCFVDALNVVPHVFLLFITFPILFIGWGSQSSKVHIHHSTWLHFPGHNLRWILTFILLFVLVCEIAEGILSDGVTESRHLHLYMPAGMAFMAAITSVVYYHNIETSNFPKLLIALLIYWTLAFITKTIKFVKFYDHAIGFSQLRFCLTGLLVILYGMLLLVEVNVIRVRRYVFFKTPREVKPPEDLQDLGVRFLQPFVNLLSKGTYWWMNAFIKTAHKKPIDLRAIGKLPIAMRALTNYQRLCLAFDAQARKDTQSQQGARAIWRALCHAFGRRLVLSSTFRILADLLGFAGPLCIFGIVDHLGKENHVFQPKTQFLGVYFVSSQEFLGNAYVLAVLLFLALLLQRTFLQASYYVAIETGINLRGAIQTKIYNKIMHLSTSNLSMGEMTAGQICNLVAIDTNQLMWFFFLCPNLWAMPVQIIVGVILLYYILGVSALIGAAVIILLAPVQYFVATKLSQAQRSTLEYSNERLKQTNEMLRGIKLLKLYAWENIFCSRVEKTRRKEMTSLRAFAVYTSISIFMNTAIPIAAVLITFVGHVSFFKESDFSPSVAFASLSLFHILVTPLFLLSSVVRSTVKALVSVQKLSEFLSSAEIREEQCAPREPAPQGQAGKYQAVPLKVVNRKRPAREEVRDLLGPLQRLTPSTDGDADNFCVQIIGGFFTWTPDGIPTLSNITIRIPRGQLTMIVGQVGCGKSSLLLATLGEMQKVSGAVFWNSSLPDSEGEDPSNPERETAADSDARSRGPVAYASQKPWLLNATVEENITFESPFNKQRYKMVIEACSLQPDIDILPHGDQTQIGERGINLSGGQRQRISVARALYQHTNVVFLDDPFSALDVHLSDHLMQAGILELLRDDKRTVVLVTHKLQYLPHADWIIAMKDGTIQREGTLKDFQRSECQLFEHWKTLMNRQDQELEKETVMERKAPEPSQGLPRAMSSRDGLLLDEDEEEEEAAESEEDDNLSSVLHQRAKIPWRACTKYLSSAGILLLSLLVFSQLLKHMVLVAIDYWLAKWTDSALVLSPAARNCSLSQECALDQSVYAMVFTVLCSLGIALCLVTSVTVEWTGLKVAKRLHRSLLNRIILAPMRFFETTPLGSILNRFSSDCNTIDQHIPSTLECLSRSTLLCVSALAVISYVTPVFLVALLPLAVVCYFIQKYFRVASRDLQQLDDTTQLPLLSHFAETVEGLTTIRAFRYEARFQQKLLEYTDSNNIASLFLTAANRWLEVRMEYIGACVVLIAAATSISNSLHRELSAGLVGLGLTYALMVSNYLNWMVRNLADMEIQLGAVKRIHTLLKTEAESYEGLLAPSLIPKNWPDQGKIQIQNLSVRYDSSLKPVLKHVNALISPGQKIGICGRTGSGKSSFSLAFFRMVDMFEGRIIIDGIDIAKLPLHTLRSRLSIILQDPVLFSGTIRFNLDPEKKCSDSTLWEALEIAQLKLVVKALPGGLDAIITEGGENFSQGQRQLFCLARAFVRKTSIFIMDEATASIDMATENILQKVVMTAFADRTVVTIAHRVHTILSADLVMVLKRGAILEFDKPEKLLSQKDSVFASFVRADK
Description: SUR1-expressing HEK293t cells were harvested and washed twice in assaying buffer containing in mM: 119 NaCl, 4.7 KCl, […], 1.2 KH2PO4, 1.2 MgSO4, 5 NaHCO3, and 20 HEPES, pH 7.4. In a 96-well plate, ∼200,000 cells/well were incubated for 50 min with [3H]-glibenclamide (PerkinElmer) and different concentrations of glimepiride (Sigma-Aldrich) or JB253. Incubation was terminated by rapid filtration through Whatman GF/C filters by means of a Brandel MWXR-96 TI harvester and filters were washed 3 times with ice-cold assay buffer. Radioactivity was counted 6 h after cell and filter lysis in 200 µL Rotiszint EcoPlus (Roth) using a Packard microbeta scintillation counter (PerkinElmer).
(§1) Data distribution was determined using the D'Agostino omnibus test. Non-multifactorial pairwise comparisons were made using either the Student's t-test. Interactions between multiple treatments were assessed using one-way ANOVA followed by pairwise comparisons using Bonferroni's post-hoc test. Effect sizes in islets/cells are usually sufficiently large that multiple animals/independent replication is a more important determinant of power in studies requiring statistical comparison. Non-linear regression was used to calculate the EC50 of normalized and log-transformed concentration-response curves. For [3H]-glibenclamide displacement assays, data points were fitted to the Hill equation before calculation of the halfmax value. In all cases, analysis was performed using Graphpad Prism (Graphpad Software) and IgorPro, and experimental numbers reported as independent biological replicates. No animals or data were excluded from the analysis and results were considered significant at P<0.05.

mouse islets = assay: Calcium imaging (fMCI) of beta cell activity in intact mouse islets; format: cell-based; conditions: mouse islets
Description: Male and female CD1 and C57BL6 mice (8-20 weeks) were maintained in a specific pathogen-free facility under a 12h light-dark cycle with ad libitum access to water and food. Animals were euthanized using a schedule-1 method and pancreatic islets isolated by collagenase digestion. All procedures were regulated by the Home Office according to the Animals (Scientific Procedures) Act 1986 of the United Kingdom (PPL 70/7349), and study approval granted by the Animal Welfare and Ethical Review Body (AWERB) of Imperial College. No randomization was used for animal experimentation, since mice were only used as tissue donors.
Islets were loaded for 30-45 min in fluo2-AM (10 µM) or for 2-5 min with X-Rhod 1 (5 µM) diluted with a mixture of DMSO (0.01%, wt/vol) and pluronic acid (0.001%, wt/vol; all Invitrogen) in a bicarbonate buffer containing in mM: 120 NaCl, 4.8 KCl, 1.25 NaH2PO4, 24 NaHCO3, 2.5 CaCl2, 1.2 MgCl2 and 5 D-glucose. fMCI was performed using a Zeiss Axiovert M200 fitted with a Nipkow spinning-disk head (Yokogawa CSU-10) and a 10x/0.3NA objective adjusted for chromatic aberration (EC Plan-Neofluar, Zeiss). Pulsed excitation (frequency = 0.5 Hz; exposure = 263 ms) was delivered at 491 nm and emitted signals recorded at 500-550 nm with a back-illuminated 16-bit EM-CCD camera (ImageEM 9100-13; Hamamatsu). During recording, islets were maintained at 35-36 °C in the presence of 50 µM JB253 using a custom-manufactured perfusion and heating system (Digital Pixel). Drugs were introduced through the perfusion system at the indicated time points and concentrations. Violet light was delivered by a 405 ± 5 nm laser coupled to the side port of the microscope and configured to fill the back of the objective with light using an Optospot (Cairn Research). Blue light was delivered using 440 ± 5 nm and 491 ± 5 nm diode lasers controlled by a laser merge module (Spectral Applied Research) to allow simultaneous exposure and acquisition. For single islet targeting, a 473 ± 5 nm laser was coupled to a custom-manufactured dichroic array (Cairn Research), allowing user-directed steering of a collimated laser spot across the field of view. Signals were normalized using F/Fmin where F is fluorescence at a given timepoint and Fmin is minimum fluorescence.
as §1

SMILES: CCN(CC)c1ccc(/N=N/c2ccc(S(=O)(=O)NC(=O)NC3CCCCC3)cc2)cc1 [JB253, (E)-N-(cyclohexylcarbamoyl)-4-((4-(diethylamino)phenyl)diazenyl)benzenesulfonamide]
- cytotoxicity to islets (necrosis indices, cell death versus DMSO-alone) (islets): did not appear to be cytotoxic
- block of KATP (hyperpolarizing) currents (KATP channels): reversibly blocked; also recorded: only blocks the KATP current during illumination
- X-Rhod1-loaded cells responding with Ca^2+ rises (human islets): ~62%
- lower affinity to SUR1 compared to glimepiride (SUR1; [3H]-glibenclamide displacement, unaffected by illumination): 1000 fold
- IC50 (SUR1; displacement of [3H]-glibenclamide, SUR1-expressing HEK293t cells, n = 3, cis-state may relax thermally during washing): 17.6 µM
- fluo-2-loaded population responding to illumination with synchronous Ca^2+ rises (mouse islets; 50 µM JB253, 405 nm laser, n = 10 recordings): 54%
- responsive X-Rhod-1-loaded cells (mouse islets; 50 µM JB253, 405 nm, n = 3 recordings): 63%
- stimulation of [Ca^2+]i (mouse islets; concentration-response, dark): largely ineffective
- concentration-response curve for glimepiride in the presence of trans-JB253 (mouse islets; saturating concentration (100 µM) of trans-JB253, dark): right-shifted
